From patent US12589090B2, “Compounds and methods for the treatment of degenerative disorders” (Aquilus Pharmaceuticals, Inc., priority 2019, dated 2026)
“Also recorded” adds a separate entry of the source.

Test system: SNL rats
Assay: Spinal nerve ligation (SNL) rat model, mechanical allodynia by von Frey paw withdrawal threshold (Example 17)
Format: in vivo, Sprague Dawley rats
Conditions: 160 mg/Kg PO once per day for 5 days, 60 min after dosing, vs. vehicle control, p<0.05
Description: A total of 90 male Sprague Dawley rats (200-225 g) from Envigo (Indianapolis, IN) were used in the study. The 90 rats were assembled into four groups that would be orally dosed (PO) with vehicle, Gabapentin and Compound 118 as follows: • Group 1=Sham+Vehicle, n=20 rats • Group 2=SNL+Vehicle, n=40 rats • Group 3=SNL+Compound 118 (160 mg/Kg), n=20 rats • Group 4=SNL+Gabapentin (100 mg/Kg), n=10 rats
Under general anesthesia with continuous inhalation of isoflurane, surgery was performed with aseptic procedures. The skin at the area of the lower lumber and sacral level of the rat was shaved and disinfected with betadine and alcohol. A left longitudinal incision at the level next to the vertebral column was made and the left paraspinal muscles were separated. The transverse process of L6 was removed and nearby connective tissue cleaned to expose L5 and L6 spinal nerves. After the nerves were isolated and clearly visualized, 4-0 silk threads were used to ligate the left L5. The muscles were sutured with 4-0 silk threads and the wound closed by staples. […] Each rat was monitored until awake and moving freely around the recovery chamber. […]
The mechanical allodynia of the rodents were measured by applying von Frey (VF) filaments (Stoelting, Wood Dale, IL) of ascending bending force to the plantar surface of the hind paws, ipsilateral and contralateral to the surgical manipulation. […]

[2H]C([2H])([2H])c1ccc(C#Cc2ccc(S(=O)(=O)N[C@H](Cc3c[nH]c4ccccc34)C(=O)O)s2)cc1 [Compound 118, (R)-3-(1H-Indol-3-yl)-2-[5-(4-trideuteromethyl-phenylethynyl)-thiophene-2-sulfonylamino]-propionic acid-(D3, 98%)]
mechanical allodynia (ipsilateral paw withdrawal threshold, von Frey): reduce mechanical allodynia in a statistical manner; also recorded: statistically significant decrease in mechanical allodynia
